According to patent US20250144047A1, “PHARMACEUTICAL COMPOSITION FOR PREVENTING, AMELIORATING, OR TREATING CANCER CONTAINING 8-PARADOL” (KDBIO CORP., priority 2022, published 2025):
Each block holds one molecule with its values, some of them ahead of it.

Experiments:
[1] = parameters: species or system mice; settings: mouse, in vivo, po, 5 mg/kg
Method: Male nude mice (CAnN.Cg-Foxn1-nu, 4 weeks old, 20 g to 22 g) were purchased from OrientBio (Seongnam, Republic of Korea). The mice were placed in a chamber with conditions maintained at 23° C. and 50% humidity with a period of 12 hours of light and 12 hours of darkness. All animal experiments were conducted according to the National Institutes of Health's Laboratory Animal Care and Use Guidelines (NIH Publications No. 8023, revised 1996) and the Kyung Hee University's Animal Care and Use Guidelines ([…]-441, approval data: Sep. 28, 2021). […] The control group was administered with only 0.9% of general saline during this period. Body weights and tumor volumes of the mice were measured daily in all mice during the study period. All mice were euthanized after the end of the experiments. Blood, liver, spleen, kidney, and tumor tissues were extracted and weighed. In order to obtain the protein of tumor tissue, a portion of the tissue was processed with RIPA buffer containing a protease inhibitor cocktail. Then, the expression degree of a specific protein (determined by Western blot) was determined. […] Fuji Dri-Chem analyzer (3500, Fuji Photo Film Co., Osaka, Japan) was used to measure alanine aminotransferase (ALT), aspartate aminotransferase (AST), total bilirumin (T-Bili), total protein (TP), albumin (Alb), albumin/globulin (A/G) ratio, total cholesterol (T-Chol), total triglyceride (TG), glucose (GLU), and blood urea nitrogen (BUN) values.

[2] = system: AGS xenograft tumor tissue; experiment: IHC staining of tumor tissue; type: in vivo; settings: tumor tissue of administered mice
Method: The tumor tissue was fixed with 10% formalin and embedded with paraffin. Immunohistochemical (IHC) staining was performed using a mouse and rabbit-specific HRP/DAB (ABC) detection IHC kit (Abcam, Cambridge, MA, USA). The tissue was observed through an optical microscope, and the presence of a specific protein in the tumor tissue was determined to be the presence of a brown yellow color. The results were evaluated using ImageJ software.

[3] = system: AGS xenograft tumor tissue; experiment: Western blot of tumor tissue of xenograft mice; type: in vivo; settings: tumor tissue, oral 5 mg/kg, compared to control group
Method: For whole protein extraction, AGS cells were processed with samples at various concentrations for 24 hours. The cells were dissolved using Pierce™ RIPA buffer (Thermo Fisher Scientific, Rockford, IL, USA) together with protease inhibitor cocktail (GenDEPOT, TX, USA). The cell-dissolved solution formed in the above manner was centrifuged at 12,000 rpm for 20 minutes. The protein was loaded into a 10% SDS-PAGE gel using a protein gel electrophoresis chamber system and transferred to a PVDF membrane (Thermo Fisher Scientific, Rockford, IL, USA). A PBST solution containing 5% skim milk was used to block the membrane at 25° C. for 1 hour. Then, the membrane was incubated overnight at 4° C. with primary antibodies. Finally, the membrane was incubated with the secondary antibodies at 25° C. for 1 hour, and a protein band was detected using West-Q Pico ECL Solution (GenDEPOT, TX, USA). The results were quantified using ImageJ software.
Each mouse was orally administered with 8-paradol and 5-FU once a day for a total of 16 days. The control group was administered with only 0.9% of general saline during this period. Body weights and tumor volumes of the mice were measured daily in all mice during the study period. All mice were euthanized after the end of the experiments. Blood, liver, spleen, kidney, and tumor tissues were extracted and weighed. In order to obtain the protein of tumor tissue, a portion of the tissue was processed with RIPA buffer containing a protease inhibitor cocktail. Then, the expression degree of a specific protein (determined by Western blot) was determined.

AGS cells = settings: for dose at which significant toxicity to AGS cells was not exhibited: MTT; for IC50: read-out: IC50 on AGS cells, 24 hours, MTT assay; for dose at which significant toxicity to AGS cells was not exhibited / IC50: AGS cells
Method: AGS cells were grown in RPMI medium containing 10% FBS and 1% PS. HEK293 and RAW264.7 cells were grown in DMEM medium containing 10% FBS and 1% PS under conditions of 37° C., 5% CO2 and 95% air.
In order to evaluate toxicity to each cell, the sample was incubated in each cell (1×10^5 cells/well) cultured in the above manner for 24 hours, and then cytotoxicity to each cell was examined by using the MTT assay.

Structure (SMILES): O=c1[nH]cc(F)c(=O)[nH]1 [5-FU, 5-fluorouracil]
A/G (albumin/globulin) [1]: 0.52 ratio | ALT (alanine aminotransferase) [1]: 101.6 U/L | AST (aspartate aminotransferase) [1]: 204.9 U/L | Alb (albumin) [1]: 1.7 g/dL | BUN (blood urea nitrogen) [1]: 26.7 mg/dL | Crea (creatinine) [1]: 0.34 mg/dL | GLU (glucose) [1]: 56 mg/dL | T-Bili (total bilirubin) [1]: 0.08 mg/dL | T-Chol (total cholesterol) [1]: 124 mg/dL | TG (triglyceride) [1]: 34 mg/dL | TP (total protein) [1]: 5.1 g/dL | density of LC3 and caspase-3 in tumor tissue [2]: increased | protein expressions of LC3, Pink1, Parkin, Bax, Cytochrome-c, cleaved-caspase-3/caspase-3, Cleaved-caspase-9/caspase-9, p62 and Bcl-2 [3]: lower | cytotoxicity to AGS cells (AGS cells): strong toxicity

Structure (SMILES): N#CC(C#N)=NNc1cccc(Cl)c1 [CCCP, carbonyl cyanide m-chlorophenylhydrazone, reference compound]
dose at which significant toxicity to AGS cells was not exhibited (AGS cells): less than 15 μM

Structure (SMILES): CCCCC[C@H](O)CC(=O)CCc1ccc(O)c(OC)c1 [Purified Compound 2, 6-gingerol]
IC50 (AGS cells): 178 ± 2.51 µM

Structure (SMILES): CCCCCCC[C@H](O)CC(=O)CCc1ccc(O)c(OC)c1 [Purified Compound 4, 8-gingerol]
IC50 (AGS cells): 33.2 ± 1.21 µM

Structure (SMILES): CCCCCCCCC[C@H](O)CC(=O)CCc1ccc(O)c(OC)c1 [Purified Compound 5, 10-gingerol]
IC50 (AGS cells): 16.1 ± 2.32 µM

Structure (SMILES): CO[C@H]1C[C@@H]2CC[C@@H](C)[C@@](O)(O2)C(=O)C(=O)N2CCCC[C@H]2C(=O)O[C@H]([C@H](C)C[C@@H]2CC[C@@H](O)[C@H](OC)C2)CC(=O)[C@H](C)/C=C(\C)[C@@H](O)[C@@H](OC)C(=O)[C@H](C)C[C@H](C)/C=C/C=C/C=C/1C [rapamycin, reference compound]
dose at which significant toxicity to AGS cells was not exhibited (AGS cells): less than 6 μM

Other lines, results leading:

IC50 (AGS cells): 25.7 ± 1.87 µM
Structure (SMILES): CCCCCCCC(=O)CCc1ccc(O)c(OC)c1 [Purified Compound 1, 6-paradol]

IC50 (AGS cells): 32.9 ± 2.26 µM
Structure (SMILES): CCCCC/C=C/C(=O)CCc1ccc(O)c(OC)c1 [Purified Compound 6, 6-shogaol]

IC50 (AGS cells): 45.6 ± 3.6 µM
Structure (SMILES): CCCCCCC/C=C/C(=O)CCc1ccc(O)c(OC)c1 [Purified Compound 7, 8-shogaol]

IC50 (AGS cells): 64.5 ± 1.98 µM
Structure (SMILES): CCCCCCCCC/C=C/C(=O)CCc1ccc(O)c(OC)c1 [Purified Compound 8, 10-shogaol]
